# Measurements from US20250129033A1, “METAP2 INHIBITORS AND USES THEREOF” (Yissum Research Development Company of the Hebrew …, priority 2022, published 2025).
# Columns and labels:
# [1] = test system: Choroidal Neovascularization (CNV); assay: Laser-induced CNV in mice; type: in vivo, C57Bl/6J mice; conditions: Eylea, in the given dose and time
# From the text: Laser-induced CNV was generated by a previously described technique with some modifications. C57Bl/6J mice (6-8 weeks) were anesthetized by intraperitoneal injections of a mixture of 85% ketamine and 15% xylazine. A mixture of 0.5% tropicamide and 0.5% phenylephrine hydrochloride was applied to both eyes to dilate the pupils. Lesions were induced by a diode pumped solid state laser (0.1 s; spot size, 100 μm; power 120 mW) around the optic nerve through a slit lamp delivery system using a Nidek while a hand-held cover slide was used as a contact lens. Only lesions in which a subretinal bubble or focal serous detachment of the retina developed were used for the experiments. For this purpose, 4 burns were performed per eye while leaving a space around the optic disc. Intravitreal injections of the treatments were performed using a PLI-100 Pico-Injector following the laser procedure. After 7 days mice were euthanized and their eyes were removed and fixed in 4% paraformaldehyde for 60 min. The cornea and lens were removed, and the entire retina was carefully dissected from the eyecup Choroid.
# Blood vessels were labeled using a 1:200 dilution of isolectin IB4 conjugated with Alexa Fluor 488 or lectin-FITC. The eyecup was flat-mounted in an aqua-mount with the sclera facing down and the choroid facing up. […] The CNV area (presented in μm2) in choroidal flat mount was evaluated using ImageJ software […]
# MetAP2 = MetAP2 (Homo sapiens, UniProt P50579); assay: MetAp2 enzymatic assay, L-Met-AMC substrate (Experimental Set-Up 1); type: biochemical
# Protocol: Quantitative MetAP2 activity assay by N-terminal cleavage of substrate 7-amino-4-methyl-courmarin was performed as follows: The activity of MetAP2 was measured using fluorescent peptide substrate L-Met-AMC (Santa Cruz Biotechnology, Inc, sc-207807) as described by Garrabrant et al. (Angiogenesis 7: 91-96, 2004). Briefly, the reaction (100 μl final) was initiated by adding 0.5 μg of MetAP2 or 5 μg HUVEC homogenate to reaction buffer containing 50 mM HEPES (pH 7.4), 100 mM NaCl, 0.1 mM CoCl2, 1 mg/ml PEG6000, and 250 μM L-Met-AMC substrate. The assay was prepared in black flat-bottomed 96-well microtiter plates and fluorescence was measured every 20 s over a period of 60 min at 25° C. using a microplate fluorometer (Bioteck, SynergyHT), with excitation and emission wavelengths set at 360 and 440 nm respectively. As a control the inhibition of the enzyme was obtained by incubating it with TNP-470 for 15 min before the addition of the substrate.
# The inhibitory effect of the compounds were tested in MetAp2 enzymatic assay.
# [2] = cited from earlier work
# Sequence of MetAP2 (P50579 whole entry): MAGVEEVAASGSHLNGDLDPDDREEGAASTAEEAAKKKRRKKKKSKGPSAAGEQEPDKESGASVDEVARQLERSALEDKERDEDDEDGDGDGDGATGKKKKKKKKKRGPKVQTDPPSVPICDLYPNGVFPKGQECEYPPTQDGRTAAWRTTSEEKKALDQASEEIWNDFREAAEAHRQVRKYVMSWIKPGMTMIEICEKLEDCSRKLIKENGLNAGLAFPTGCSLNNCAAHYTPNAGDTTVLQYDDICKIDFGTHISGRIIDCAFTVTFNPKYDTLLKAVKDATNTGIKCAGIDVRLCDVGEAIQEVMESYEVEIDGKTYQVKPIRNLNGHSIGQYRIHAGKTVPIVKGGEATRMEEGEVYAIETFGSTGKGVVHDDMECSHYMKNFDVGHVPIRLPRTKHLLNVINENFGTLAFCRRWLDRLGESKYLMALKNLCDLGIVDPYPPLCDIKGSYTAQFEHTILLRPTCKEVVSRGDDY
compound,measurement,setting,value
"Eylea: the standard of care, as treatment for “wet” AMD [reference compound]",effect on mouse laser induced CNV,[1],59%
"CO[C@H]1C(C2(C)O[C@@H]2CC=C(C)C)[C@]2(CC[C@H]1OC(=O)NC(=O)CCl)CO2 (some centres unmarked) [TNP-470, O-chloroacetylcarbamoyl fumagillol]",inhibition at 2.5 µM,"MetAP2; 2.5 microM, read-out: inhibition of the catalytic activity of MetAp2",95%
same,adverse side-effects,[2]; in high doses,reversible neurotoxicity in some patients
same,half-life in plasma,[2]; intravenous formulation,minutes
CO[C@@H]1[C@H](OC(=O)NC(=O)CCl)CC[C@]2(CO2)[C@H]1[C@@]1(C)O[C@@H]1CC=C(C)C [AD-3201],inhibition of the catalytic activity of MetAp2,MetAP2; 0.5 microM,75%
same,inhibition of the catalytic activity of MetAp2,MetAP2; 2.5 microM,97%
"CO[C@@H]1[C@H](OC(=O)C23CC4(C)CC(C)(CC(C)(C4)C2)C3)CC[C@]2(CO2)[C@H]1[C@@]1(C)O[C@@H]1CC=C(C)C [AD-3306, Fumagillol-3,5,7-trimethyladamantane-1-carboxylate]",activity in inhibiting the catalytic activity of MetAp2 compared to TNP-470,MetAP2,almost identical to TNP-470
same,inhibitory effect in MetAp2 enzymatic assay (ranking among compounds),MetAP2,most active
